Source: patent publication US20260297129A1, “PEPTIDES AS SELECTIVE IL-23 RECEPTOR INHIBITORS” (SANOFI, priority 2023, published 2026)
In brackets after ≈: the same amount, converted by molar mass. Like-named read-outs stand apart in the source and are kept apart here. Numbered stars: 1 amine (or outer) side, 2 acyl side, 3 side chain; on linkers, the order of the positions; unused ones are H or OH. Bridge positions count the residues as written; N and C are the ends. Square brackets hold non-standard residues; d marks the D form. Peptide text beside a SMILES is read from it. * marks the point of attachment. Lys(Me,(CH2)4NMe(CH2)5CO) = CN(CCCCCC(=O)[*:3])CCCCN(C)CCCC[C@H](N[*:1])C(=O)[*:2]; Lys(Me,(CH2)4NMe(CH2)4CO) = CN(CCCCC(=O)[*:3])CCCCN(C)CCCC[C@H](N[*:1])C(=O)[*:2]; Trp(7-Me) = Cc1cccc2c(C[C@H](N)C(=O)O)c[nH]c12; Trp(1-Me) = Cn1cc(C[C@H](N)C(=O)O)c2ccccc21; NH(2-(3-pyridyl)ethyl) = c1cncc(CCN*)c1; 2Nal = N[C@@H](Cc1ccc2ccccc2c1)C(=O)O; Thp = NC1(C(=O)O)CCOCC1; Me2NCH2CH2 = CN(C)CC*; Aib = CC(C)(N)C(=O)O

Key:
[1] = Protease stability in simulated intestinal fluids (FaSSIF) (Table 7); assay type: in vitro ADME; details: fassif with pancreatin, 37° C.
Description: (§1) Studies were carried out in simulated intestinal fluid (SIF) and simulated gastric fluid (SGF) to evaluate gastric stability of the peptide compounds disclosed herein.
Similarly, the term “Pancreatin-SIF” refers to a solution of simulated intestinal fluid containing pancreatin whereas “SIF-media” refers to a solution of simulated intestinal fluid without pancreatin. Pancreatin-SIF was prepared by dissolving 1 mg Pancreatin (MP Biomedicals) in 10 mL SIF media concentrate (PROSENSE).
(§2) Peptide compounds were first dissolved at 1 mM stock concentration in 0.01 HCl (+/−10% of DMSO) and were than diluted further with water to a stock concentration of 20 μM. Final peptide concentration in the incubation was 1 μM.
(§3) To 76 μL of the Pepsin-SGF buffer, 4 μL of the 20 μM peptide stock solution was added and incubated at 37° C. At each timepoint (0, 60, 120 and 240 minutes) the reaction was quenched with addition of 80 μL Ethanol (0.1% HCOOH). The samples were centrifuged for 20 minutes and an aliquot of the supernatant 100 μL were transferred to a LoBind-MTP plate and analyzed by LCMS/MS. The peak area response was calculated at each time point for each test compound. As internal reference, the peak area response of the same test compound at T0 was calculated. The percentage remaining at each timepoint was calculated based on the peak area response ratio of the test compound at T0. Time 0 was set to 100%, and all later timepoints were calculated relative to time 0.

[2] = Solubility of peptide compounds in buffer formulations (Table 5); assay type: physicochemical; details: target 1 mg/ml
Description: Prior to the solubility measurement of a peptide batch, its purity was determined through UHPLC/MS method A.
For solubility testing the target concentration was 1 mg pure compound/ml. Therefore, solutions from solid samples were prepared in a buffer system at a concentration of 1 mg/mL compound. The solid samples were obtained by drying down aliquots of a freshly prepared dimethyl sulfoxide stock solution using a THERMO SPEEDVAC vacuum centrifuge. The dry down time was 3 hours.
The following buffer systems were applied: • Solubility buffer system A) 50 mM HCl pH 1.2 • Solubility buffer system B) 50 mM phosphate buffer pH 6.5 • Solubility buffer system C) 50 mM phosphate buffer pH 7.4 • UHPLC-UV was performed using analytical method A after 2 hours of gentle agitation from the filtered (0.45 μm filter plates) solutions, which were obtained by 10 mins of centrifugation forced filtration at 1500 RCF (relative centrifugal acceleration).
The solubility was determined by the comparison of the UV peak area of 2 μL-injections of a buffered sample diluted 1:10 with a standard curve of a dimethyl sulfoxide reference sample of known concentration. The different extinction coefficients were taken into account for the calculation.

[3] = tested on: IL-23 induced STAT3 signaling (IL-23 receptor) in HEK-Blue IL-23 cells; test: Inhibition of IL-23 induced STAT3 signaling in HEK-Blue IL-23 cells, SEAP reporter (Table 9); assay type: cell-based; details: human IL23 0.25 ng/ml, overnight, read-out: Inhibition of IL-23 induced pSTAT3 (IC50 nM)
From the text: HEK-Blue™ IL-23 cells (INVIVOGEN) are designed for the detection of bioactive human (hIL-23) and murine IL-23 (mIL-23) by monitoring the activation of the STAT3 pathway. Binding of IL-23 to its receptor on the surface of HEK-Blue™ IL-23 cells triggers a signaling cascade leading to the activation of STAT3 and the subsequent production of secreted embryonic alkaline phosphatase (SEAP). This can be readily assessed using QUANTI-Blue™ Solution, a SEAP detection reagent.
HEK-Blue™ IL-23 cells were cultured as described by INVIVOGEN.
On the first day of assay 10 μL of the HEK-BLUE IL23 cell suspension (final concentration: 10,000 cells/well) and 10 μl of serially diluted peptides solutions were dispensed into a 384-well assay plate. After pre-incubation of the reaction mixtures at 37° C./5% CO2/95% humidity for 60 minutes, 10 μl of the humanIL23 cytokine (final concentration: 0.25 ng/ml) was added to each well for the STAT3 signaling activation. The plate was incubated overnight at 37° C./5% CO2/95% humidity.
On the second day 20 μl per well of QUANTI-BLUE detection solution (prepared according to the manufacture instruction) was dispensed into a new 384-well plate and followed by the transfer of 5 μl supernatant of the overnight incubated cell/sample mixtures. After incubation of 45 min at room temperature signals were measured with PHERASTAR (BMG) at OD 620-655 nm.
Dose response data were fitted with XLfit.

[4] = Protease stability in simulated gastric fluids (FaSSGF) (Table 7); assay type: in vitro ADME; details: fassgf with pepsin, 60 min, 37° C., read-out: Remaining percentage of peptide compound, FaSSGF 60 (min)
Description: as §1
For clarification, the term “Pepsin-SGF” refers to a solution of simulated gastric fluid containing pepsin whereas “SGF media” refers to a solution of simulated gastric fluid without pepsin. Pepsin-SGF was prepared by dissolving 320 mg Pepsin (Merck Millipore) in 100 mL SGF media concentrate (PROSENSE).
as §2
as §3, with “(0,1%” for “(0.1%”
as §3

[5] = Buffer pH 1.1 (head; method: 50 mM HCl pH 1.2), 2 h agitation, read-out: Solubility, Buffer pH 1.1
[6] = aqueous buffer, 50 mM phosphate buffer pH 6.5, 2 h agitation, read-out: Solubility, Buffer pH 6.5
[7] = aqueous buffer, 50 mM phosphate buffer pH 7.4, 2 h agitation, read-out: Solubility, Buffer pH 7.4

remaining at 1 h, 1 µM ([1]; 60 min, read-out: Remaining percentage of peptide compound, FaSSIF 60 (min)) [%]	remaining at 2 h, 1 µM ([1]; 120 min, read-out: Remaining percentage of peptide compound, FaSSIF 120 (min)) [%]	remaining at 4 h, 1 µM ([1]; 240 min, read-out: Remaining percentage of peptide compound, FaSSIF 240 (min)) [%]	solubility at 2 h [2, 5] [µg/mL]	solubility at 2 h [2, 6] [µg/mL]	solubility at 2 h [2, 7] [µg/mL]	remaining at 1 h, 1 µM [4] [%]	Compound	IC50 [3] [nM]
97	95	96	≥ 950	≥ 890	≥ 860	98	CN(C)CCOc1ccc(C[C@@H]2NC(=O)C3(CCOCC3)NC(=O)[C@H](CCC(N)=O)NC(=O)[C@H](Cc3cn(C)c4ccccc34)NC(=O)CCCCN(C)CCCCN(C)CCCC[C@@H](C(=O)NCC(=O)NCCc3cccnc3)NC(=O)C(C)(C)NC(=O)[C@H](Cc3ccc4ccccc4c3)NC2=O)cc1 [compound 25] ([Trp(1-Me)]Q[Thp]Y(Me2NCH2CH2)[2Nal][Aib][Lys(Me,(CH2)4NMe(CH2)4CO)]G-{NH(2-(3-pyridyl)ethyl)}; lactam N-7)	42.5
			≥ 980	850 (≈ 550 µM)	810 (≈ 524 µM)		CC(=O)NCCCC[C@@H]1NC(=O)[C@H](Cc2c[nH]c3c(C)cccc23)NC(=O)CCCCN(C)CCCCN(C)CCCC[C@@H](C(=O)NCC(=O)NCCc2cccnc2)NC(=O)C2(CCOCC2)NC(=O)[C@H](Cc2ccc3ccccc3c2)NC(=O)[C@H](Cc2ccc(OCCN(C)C)cc2)NC(=O)C2(CCOCC2)NC1=O [compound 48] ([Trp(7-Me)]K(Ac)[Thp]Y(Me2NCH2CH2)[2Nal][Thp][Lys(Me,(CH2)4NMe(CH2)4CO)]G-{NH(2-(3-pyridyl)ethyl)}; lactam N-7)	10.4
			≥ 1020	≥ 920	330 (≈ 224 µM)		CN(C)CCOc1ccc(C[C@@H]2NC(=O)C3(CCOCC3)NC(=O)[C@H](CCC(N)=O)NC(=O)[C@H](Cc3cn(C)c4ccccc34)NC(=O)CCCCCN(C)CCCCN(C)CCCC[C@@H](C(=O)NCC(=O)NCCc3cccnc3)NC(=O)C(C)(C)NC(=O)[C@H](Cc3ccc4ccccc4c3)NC2=O)cc1 [compound 22] ([Trp(1-Me)]Q[Thp]Y(Me2NCH2CH2)[2Nal][Aib][Lys(Me,(CH2)4NMe(CH2)5CO)]G-{NH(2-(3-pyridyl)ethyl)}; lactam N-7)	24.8
